These results are taken from US20040127537A1 (priority 2002, published 2004).

A short description of series [1]: Example 6: buffer capacity titration of parecoxib sodium formulations with added buffer. It is filed as physicochemical. The following applies: for Improvement in buffer capacity: parecoxib sodium 40 mg/ml f.a.e., acid to adjust pH 8.5 to 7.4, with versus without buffer; for effect of added buffer on buffer capacity: parecoxib sodium formulations tested, PEG 600/WFI. The procedure:
The amount of titrant used to titrate each parecoxib sodium/buffer solution was compared with that required to titrate a parecoxib solution without buffer. Percent improvement in buffer capacity was determined by comparing the amount of acid required to adjust pH from 8.5 to 7.4 in the presence versus absence of buffer.

A short description of series [2]: Example 1: stability of parecoxib sodium in candidate solubilizers (valdecoxib formed, HPLC). The class given is physicochemical. The conditions noted are these: 40 mg/ml f.a.e., 70° C., 7 days, FIG. 1. The procedure: Formulations were prepared and sealed in Type I vials. […] Valdecoxib formed was calculated as a percentage of parecoxib initially present.
Series [3] in a line: Example 2: stability of parecoxib sodium in solvent liquids with different solubilizers. The conditions noted are these: 55° C., 3 days, FIG. 2. It is filed as physicochemical. As for the experimental part: (§1) The procedure was similar to that of Example 1. Valdecoxib formed was calculated as a percentage of parecoxib initially present.
Series [4] is described as follows: Example 4: storage stability of liquid formulations LF1-LF9 (valdecoxib formed, HPLC). The class given is physicochemical. The conditions noted are these: PEG/water formulations of Example 4 (PEG 300, 400, 600). As for the experimental part: Each vial was flushed with nitrogen gas prior to stoppering.
Valdecoxib was measured by HPLC and was calculated as a percentage of parecoxib initially present.

Series [5] is described as follows: Example 3: stability of parecoxib sodium in PEG-containing solvent liquids. The conditions noted are these: 70° C., 7 days, FIG. 3. The class given is physicochemical. The procedure:
as §1

The target in another series is COX-1 (Homo sapiens, UniProt P23219). The following applies: cited from earlier work.
Chain of COX-1 (P23219 24-599): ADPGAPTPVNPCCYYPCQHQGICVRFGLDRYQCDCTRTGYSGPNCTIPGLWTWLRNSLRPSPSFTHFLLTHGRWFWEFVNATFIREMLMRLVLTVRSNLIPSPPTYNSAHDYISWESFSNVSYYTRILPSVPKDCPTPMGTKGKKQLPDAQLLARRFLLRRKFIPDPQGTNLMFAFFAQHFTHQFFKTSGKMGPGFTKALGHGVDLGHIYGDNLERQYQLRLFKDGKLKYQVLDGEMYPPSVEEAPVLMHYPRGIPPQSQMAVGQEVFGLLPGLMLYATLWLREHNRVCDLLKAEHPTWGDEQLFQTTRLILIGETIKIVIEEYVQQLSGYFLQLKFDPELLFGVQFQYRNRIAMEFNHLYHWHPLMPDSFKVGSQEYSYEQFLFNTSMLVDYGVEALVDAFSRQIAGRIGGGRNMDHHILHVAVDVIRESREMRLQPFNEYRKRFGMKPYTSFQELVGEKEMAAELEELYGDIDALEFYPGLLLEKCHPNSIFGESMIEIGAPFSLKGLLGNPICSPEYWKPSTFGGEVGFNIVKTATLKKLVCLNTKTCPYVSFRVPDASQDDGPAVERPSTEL
Series [6] in a line: precipitation of parecoxib free acid on downward pH drift of composition. It is filed as physicochemical. The following applies: parecoxib salt composition, downward pH drift on storage. An excerpt:
Presence of precipitated parecoxib free acid in a parenteral composition is undesirable as it can cause local pain and irritation upon injection.

A short description of series [7]: conversion of parecoxib to valdecoxib after parenteral administration. The class given is in vivo. The conditions noted are these: human subject. The source says: The term “equal” in this context means equal in molar amount or in absolute amount (i.e., in weight).
A short description of series [8]: Example 6: solubility of buffers in PEG 600/water solvent liquid. The class given is physicochemical. The conditions noted are these: solvent liquid 65% PEG 600 and 35% water, room temperature.
The conditions of series [9]: cited from earlier work.

With `O=C1O[C@H]([C@@H](O)CO)C([O-])=C1O.[Na+]` [sodium ascorbate], the “Improvement in buffer capacity” value in series [1] (PEG 600/WFI 65/35 % by weight) is recorded as 14-37%^1. The “effect of added buffer on buffer capacity” value (“effect of added buffer” below) in [1] is on record as “further improved buffer capacity”.
Regarding `CCC(=O)NS(=O)(=O)c1ccc(-c2c(-c3ccccc3)noc2C)cc1` [parecoxib sodium], the “valdecoxib formed (stability)” value in [2] (PEG 300, DMAC, 95% ethanol or 10 mM phosphate buffer pH 8.1 versus propylene glycol) was “less valdecoxib was formed”. Also, the “conversion of parecoxib to valdecoxib” value in series [2] (in presence of glycerin) is “very rapid”. In addition, the entries for the “buffering effect of parecoxib sodium itself” value in series [1] (less concentrated PEG solutions) and in series [1] (more highly concentrated PEG solutions) were “weaker buffering effect” and “excellent buffer”, respectively. The “stability (valdecoxib formed)” value in [3] (propylene glycol containing solvent liquids) was “less so”; in series [3] (solvent liquids comprising PEG 300, ethanol or DMAC, with or without water), “stable”; in series [5] (65% PEG 300, PEG 400 or PEG 600 in water), “acceptably stable”. Moreover, in series [3] (solvent liquids comprising glycerin), the conversion to valdecoxib entry is given as “significant conversion to valdecoxib”. The “parecoxib sodium stability as a function of PEG molecular weight” value in [4] is recorded as “increases with increasing PEG molecular weight”. In addition, the “valdecoxib formed, comparison of PEG grades” value in [5] (65% PEG 600 or PEG 400 versus 65% PEG 300 in water) is “less valdecoxib formed”.
On to `CC(O)C(=O)[O-].[Na+]` (stereo not drawn) [sodium lactate], for which the “Improvement in buffer capacity” value in series [1] (PEG 600/WFI 65/35 % by weight) was “negligible”.
As for `CCC(=O)NS(=O)(=O)c1ccc(-c2c(-c3ccccc3)noc2C)cc1` [parecoxib, N-[[4-(5-methyl-3-phenylisoxazol-4-yl)phenyl]sulfonyl]propanamide], the “in vitro inhibitory activity against COX-1” value on COX-1 was “weak in vitro inhibitory activity”. Also, the “pH of the composition below which parecoxib precipitates in free acid form” value in [6] was “below 7.4”. For the same compound, the “conversion to valdecoxib after parenteral administration” value in [7] is “rapidly and completely converted to valdecoxib”.
For `NC(CO)(CO)CO` [tris, 2-amino-2-(hydroxymethyl)-1,3-propanediol], the “Improvement in buffer capacity” value in series [1] (PEG 600/WFI 55/45 % by weight) is 229%; in [1] (PEG 600/WFI 65/35 % by weight), 63%. Besides, the “effect of added buffer” value in series [1] is given as “further improved buffer capacity”. In addition, the “Solubility > 0.01 M” value in [8] is on record as “yes”.
As to `Cc1onc(-c2ccccc2)c1-c1ccc(S(N)(=O)=O)cc1` [valdecoxib], the “in vitro inhibitory activity against COX-1” value at COX-1 is “weak inhibitor”. Further, the solubility in water result in series [9] is recorded as “about 10 μg/ml”.
Regarding `N=C(N)NCCC[C@H](N)C(=O)O` [L-arginine], the “Improvement in buffer capacity” value in [1] (PEG 600/WFI 65/35 % by weight) is “negligible”.
In the case of `NCC(=O)O` [glycine], the “Improvement in buffer capacity” value in [1] (PEG 600/WFI 55/45 % by weight) and in series [1] (PEG 600/WFI 65/35 % by weight) was “negligible” in each case.
Turning to `CC(=O)[O-].[Na+]` [sodium acetate], the “Improvement in buffer capacity” value in series [1] (PEG 600/WFI 55/45 % by weight) and in [1] (PEG 600/WFI 65/35 % by weight) was “negligible” in each case.
As for `O=C([O-])/C=C\C(=O)[O-].[Na+].[Na+]` [sodium maleate], the “Improvement in buffer capacity” value in series [1] (PEG 600/WFI 65/35 % by weight) is 21%. Further, the “effect of added buffer” value in series [1] is given as “further improved buffer capacity”.
For the compound `N[C@@H](Cc1c[nH]cn1)C(=O)O` [histidine], the “Solubility > 0.01 M” value in [8] is reported as “no”.
